Measurements reported in patent publication EP1247803A2, “Indolinone compounds suitable for modulation of protein kinases” (Sugen, Inc., priority 1996, dated 1998).

What was measured:
[1] = test system: MET; test: MET biochemical kinase assay; set-up: species or system human; concentration or dose not given beside the values
How it was run: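 Immunocaptured MET autophosphorylation, read colorimetrically (TMB) via HRP anti-phosphotyrosine antibody. Kinase reaction initiated with buffer containing ATP and divalent metals after compound addition to plate-bound receptor from lysates.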

[2] = molecular target: T1, EGFR (Homo sapiens, UniProt P00533); test: EGFR ELISA assay (in vitro kinase activity, EGFR captured from A431 cell lysate); type: biochemical; set-up: concentration or dose not given beside the values
T1 construct: Add 7 ug A431 cell lysate per well (EGFR source); endogenous in cells; host or cells: A431
How it was run: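 EGFR from A431 lysate was captured on plates coated with anti-EGFR antibody. Compounds were added 30 min before a 5 min phosphorylation with 3 µM ATP/5 mM MnCl2, which was stopped with 20 mM EDTA. Phosphotyrosine was detected with rabbit anti-phosphotyrosine, then a peroxidase-conjugated secondary and ABTS/H2O2, read at 410 nm.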

[3] = molecular target: PDGF-R (Homo sapiens, UniProt P09619); test: PDGF-R ELISA; type: cell-based
Text: A PDGF-R ELISA is described in International Patent Publication No. WO 96/40116, published December 19, 1996 by Tang et al.

Sequence of PDGF-R (P09619 33-1106, species assumed): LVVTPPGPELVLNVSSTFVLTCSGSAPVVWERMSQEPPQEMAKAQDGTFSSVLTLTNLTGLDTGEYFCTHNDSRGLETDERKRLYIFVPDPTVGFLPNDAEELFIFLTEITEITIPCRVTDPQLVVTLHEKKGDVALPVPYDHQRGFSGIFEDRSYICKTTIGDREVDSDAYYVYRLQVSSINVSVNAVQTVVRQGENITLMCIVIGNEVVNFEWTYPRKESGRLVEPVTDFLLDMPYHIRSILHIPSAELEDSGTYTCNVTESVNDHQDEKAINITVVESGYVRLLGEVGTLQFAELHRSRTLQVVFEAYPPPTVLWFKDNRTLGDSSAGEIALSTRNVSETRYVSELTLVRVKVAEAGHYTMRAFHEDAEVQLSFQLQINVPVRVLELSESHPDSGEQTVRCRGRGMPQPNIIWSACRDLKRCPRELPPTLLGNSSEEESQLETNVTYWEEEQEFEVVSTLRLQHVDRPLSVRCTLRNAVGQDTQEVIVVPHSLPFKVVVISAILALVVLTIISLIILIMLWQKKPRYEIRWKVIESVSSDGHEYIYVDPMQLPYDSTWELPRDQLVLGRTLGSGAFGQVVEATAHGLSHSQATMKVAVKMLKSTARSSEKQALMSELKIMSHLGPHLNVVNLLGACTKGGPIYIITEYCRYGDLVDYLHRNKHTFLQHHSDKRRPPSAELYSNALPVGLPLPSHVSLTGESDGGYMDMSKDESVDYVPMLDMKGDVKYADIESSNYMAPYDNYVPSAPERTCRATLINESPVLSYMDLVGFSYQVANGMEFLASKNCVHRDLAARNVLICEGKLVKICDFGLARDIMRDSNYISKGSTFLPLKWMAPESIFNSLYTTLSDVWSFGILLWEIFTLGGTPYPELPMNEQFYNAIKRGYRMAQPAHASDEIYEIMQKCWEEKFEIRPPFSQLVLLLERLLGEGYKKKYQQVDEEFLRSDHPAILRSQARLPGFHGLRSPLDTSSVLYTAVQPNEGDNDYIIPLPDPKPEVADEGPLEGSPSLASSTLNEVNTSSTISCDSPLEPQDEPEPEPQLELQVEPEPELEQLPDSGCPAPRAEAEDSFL
T1 sequence (P00533 25-1210): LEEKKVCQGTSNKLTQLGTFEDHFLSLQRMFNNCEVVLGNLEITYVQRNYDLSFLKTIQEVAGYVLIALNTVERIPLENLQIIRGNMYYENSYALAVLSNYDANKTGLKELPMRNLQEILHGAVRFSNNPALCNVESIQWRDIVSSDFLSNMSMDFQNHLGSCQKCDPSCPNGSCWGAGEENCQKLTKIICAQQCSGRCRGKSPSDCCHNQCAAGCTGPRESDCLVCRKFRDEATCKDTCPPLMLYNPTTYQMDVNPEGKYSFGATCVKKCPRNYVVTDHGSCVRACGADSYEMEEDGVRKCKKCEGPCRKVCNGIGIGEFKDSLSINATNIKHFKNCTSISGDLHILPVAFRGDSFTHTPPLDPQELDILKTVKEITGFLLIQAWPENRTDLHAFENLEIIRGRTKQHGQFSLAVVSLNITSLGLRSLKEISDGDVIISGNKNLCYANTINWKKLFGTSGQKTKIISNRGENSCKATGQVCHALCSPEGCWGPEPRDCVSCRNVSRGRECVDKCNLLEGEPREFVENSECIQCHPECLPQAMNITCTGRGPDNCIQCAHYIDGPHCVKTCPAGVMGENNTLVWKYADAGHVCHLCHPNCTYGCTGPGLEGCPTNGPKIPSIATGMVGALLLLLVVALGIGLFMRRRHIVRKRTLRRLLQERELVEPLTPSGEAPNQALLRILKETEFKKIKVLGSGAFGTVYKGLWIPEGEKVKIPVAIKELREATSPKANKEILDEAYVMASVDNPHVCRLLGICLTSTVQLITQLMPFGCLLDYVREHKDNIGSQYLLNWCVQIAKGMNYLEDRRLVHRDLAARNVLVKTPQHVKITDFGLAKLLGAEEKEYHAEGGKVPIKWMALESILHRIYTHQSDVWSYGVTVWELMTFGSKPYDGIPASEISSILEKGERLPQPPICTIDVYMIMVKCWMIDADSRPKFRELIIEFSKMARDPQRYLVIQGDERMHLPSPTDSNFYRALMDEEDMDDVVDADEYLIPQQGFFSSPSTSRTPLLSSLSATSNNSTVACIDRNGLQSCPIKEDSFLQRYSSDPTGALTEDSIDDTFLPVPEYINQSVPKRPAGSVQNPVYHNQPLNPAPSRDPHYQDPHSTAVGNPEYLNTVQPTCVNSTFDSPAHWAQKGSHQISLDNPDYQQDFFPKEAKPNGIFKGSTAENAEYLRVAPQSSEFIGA

For `O=C1Nc2ccc(CCCl)cc2C1=Cc1ccc(Br)cc1` [10717/G08], the “Met Kinase % Inhibition” value [1] was 10.9% and the “Biochem EGFR %Inhibition” value [2] was 36.4%.
In the case of `CNS(=O)(=O)c1ccc2c(c1)C(=Cc1cn(C)cc1C)C(=O)N2` [10726/D06], the “PDGF Kinase %Inhibition” value [3] was 28.4%, the “Met Kinase % Inhibition” value [1] was 42.8% and the “Biochem EGFR %Inhibition” value [2] was -24.4%.
With `O=C1Nc2ccc(F)cc2C1=C1C(=O)Nc2ccc(S(=O)(=O)Nc3ccc(C(F)(F)F)cc3)cc21` [10726/E08] the “PDGF Kinase %Inhibition” value [3] was 34.1%, the “Met Kinase % Inhibition” value [1] was 58.9% and the “Biochem EGFR %Inhibition” value [2] was -8.5%.
In the case of `Cc1c(Br)ccc2c1C(=Cc1ccccc1Sc1ccc(Cl)cc1)C(=O)N2` [10727/C05], the “PDGF Kinase %Inhibition” value [3] was 7.9%, the “Met Kinase % Inhibition” value [1] was 8.9% and the “Biochem EGFR %Inhibition” value [2] was 11.8%.
In the case of `O=C1Nc2c(Br)cc(Br)cc2C1=Cc1cc2c(cc1Cl)OCO2` [10727/A06], the “PDGF Kinase %Inhibition” value [3] was 13.7%, the “Met Kinase % Inhibition” value [1] was 32.7% and the “Biochem EGFR %Inhibition” value [2] was -6.3%.
In the case of `O=C1Nc2ccc(I)cc2C1=Cc1cc(O)ccc1O` [10727/B10], the “PDGF Kinase %Inhibition” value [3] was 29.7%, the “Met Kinase % Inhibition” value [1] was 99.2% and the “Biochem EGFR %Inhibition” value [2] was 94.0%.
`N#Cc1ccc(C=C2C(=O)Nc3ccc(I)cc32)cc1` [10727/B09] was tested, and the “PDGF Kinase %Inhibition” value [3] was 18.1%, the “Met Kinase % Inhibition” value [1] was 81.9% and the “Biochem EGFR %Inhibition” value [2] was 31.7%.
For `O=C1Nc2ccccc2C1=C1C(=O)Nc2ccc(S(=O)(=O)N3CCOCC3)cc21` [10726/F09], the “PDGF Kinase %Inhibition” value [3] was -2.6%, the “Met Kinase % Inhibition” value [1] was 66.8% and the “Biochem EGFR %Inhibition” value [2] was -22.8%.
With `COc1ccc(C=C2C(=O)Nc3ccc(CCCl)cc32)cc1` [10726/G11] the “PDGF Kinase %Inhibition” value [3] was -7.7%, the “Met Kinase % Inhibition” value [1] was 11.8% and the “Biochem EGFR %Inhibition” value [2] was 1.3%.
For `CNS(=O)(=O)c1ccc2c(c1)C(=C1C(=O)Nc3ccc(F)cc31)C(=O)N2` [10726/D08], the “PDGF Kinase %Inhibition” value [3] was 22.1%, the “Met Kinase % Inhibition” value [1] was 39.5% and the “Biochem EGFR %Inhibition” value [2] was -11.4%.
`Cc1ccc(C=C2C(=O)Nc3ccc(CCCl)cc32)s1` [10717/G07] was tested, and the “Met Kinase % Inhibition” value [1] was 7.5% and the “Biochem EGFR %Inhibition” value [2] was 13.1%.
With `N#Cc1cccc(C=C2C(=O)Nc3ccc(I)cc32)c1` [10727/B08] the “PDGF Kinase %Inhibition” value [3] was 14.4%, the “Met Kinase % Inhibition” value [1] was 90.7% and the “Biochem EGFR %Inhibition” value [2] was 47.4%.
With `Cc1cn(C)cc1C=C1C(=O)Nc2ccc(S(=O)(=O)Nc3ccc(C(F)(F)F)cc3)cc21` [10726/E06] the “PDGF Kinase %Inhibition” value [3] was 41.7%, the “Met Kinase % Inhibition” value [1] was -7.4% and the “Biochem EGFR %Inhibition” value [2] was -20.6%.
`O=C1Nc2c(Br)cc(Br)cc2C1=Cc1cc(O)ccc1O` [10727/A10] was tested, and the “PDGF Kinase %Inhibition” value [3] was 18.1%, the “Met Kinase % Inhibition” value [1] was 95.2% and the “Biochem EGFR %Inhibition” value [2] was 89.0%.
In the case of `CCOC(=O)c1[nH]c(C=C2C(=O)Nc3ccc(S(=O)(=O)Nc4ccc(C(F)(F)F)cc4)cc32)c(C(=O)OC)c1C` [10726/E03], the “PDGF Kinase %Inhibition” value [3] was 20.2%, the “Met Kinase % Inhibition” value [1] was 62.4% and the “Biochem EGFR %Inhibition” value [2] was -15.9%.
`O=C1Nc2ccc(F)cc2C1=C1C(=O)Nc2ccc(S(=O)(=O)N3CCOCC3)cc21` [10726/F08] was tested, and the “PDGF Kinase %Inhibition” value [3] was 28.4%, the “Met Kinase % Inhibition” value [1] was 67.3% and the “Biochem EGFR %Inhibition” value [2] was -21.5%.
For `O=C1Nc2ccc(S(=O)(=O)Nc3ccc(C(F)(F)F)cc3)cc2C1=Cc1cc(O)c2c(c1O)CCCC2` [10726/E07], the “PDGF Kinase %Inhibition” value [3] was -12.1%, the “Met Kinase % Inhibition” value [1] was 84.0% and the “Biochem EGFR %Inhibition” value [2] was 20.5%.
In the case of `CCOC(=O)c1[nH]c(C=C2C(=O)Nc3ccc(CCCl)cc32)c(C(=O)OC)c1C` [10726/G03], the “PDGF Kinase %Inhibition” value [3] was 4.3%, the “Met Kinase % Inhibition” value [1] was 26.8% and the “Biochem EGFR %Inhibition” value [2] was -17.2%.
For `O=C1Nc2ccccc2C1=C1C(=O)Nc2ccc(S(=O)(=O)Nc3ccc(C(F)(F)F)cc3)cc21` [10726/E09], the “PDGF Kinase %Inhibition” value [3] was 34.7%, the “Met Kinase % Inhibition” value [1] was 50.3% and the “Biochem EGFR %Inhibition” value [2] was 10.0%.
With `CCc1ccc(C=C2C(=O)Nc3ccc(Br)c(C)c32)s1` [10726/C10] the “PDGF Kinase %Inhibition” value [3] was 16.4%, the “Met Kinase % Inhibition” value [1] was 36.7% and the “Biochem EGFR %Inhibition” value [2] was 2.8%.
For `O=C1Nc2ccccc2C1=C1C(=O)Nc2ccc(CCCl)cc21` [10726/G09], the “PDGF Kinase %Inhibition” value [3] was 13.2%, the “Met Kinase % Inhibition” value [1] was 42.4% and the “Biochem EGFR %Inhibition” value [2] was 3.3%.
With `Cc1cn(C)cc1C=C1C(=O)Nc2ccc(S(=O)(=O)N3CCOCC3)cc21` [10726/F06] the “PDGF Kinase %Inhibition” value [3] was 17.0%, the “Met Kinase % Inhibition” value [1] was 16.2% and the “Biochem EGFR %Inhibition” value [2] was -24.1%.
In the case of `CNS(=O)(=O)c1ccc2c(c1)C(=C1C(=O)Nc3ccccc31)C(=O)N2` [10726/D09], the “PDGF Kinase %Inhibition” value [3] was 22.1%, the “Met Kinase % Inhibition” value [1] was 45.7% and the “Biochem EGFR %Inhibition” value [2] was -6.5%.
For `O=C1Nc2ccc(CCCl)cc2C1=Cc1ccc(Br)o1` [10726/G05], the “PDGF Kinase %Inhibition” value [3] was 6.2%, the “Met Kinase % Inhibition” value [1] was 81.1% and the “Biochem EGFR %Inhibition” value [2] was 5.1%.
For `O=C1Nc2ccc(F)cc2C1=C1C(=O)Nc2ccc(CCCl)cc21` [10726/G08], the “PDGF Kinase %Inhibition” value [3] was 14.5%, the “Met Kinase % Inhibition” value [1] was 39.1% and the “Biochem EGFR %Inhibition” value [2] was -2.7%.
With `COc1ccc(C=C2C(=O)Nc3ccc(S(=O)(=O)Nc4ccc(C(F)(F)F)cc4)cc32)cc1` [10726/E11] the “PDGF Kinase %Inhibition” value [3] was 30.3%, the “Met Kinase % Inhibition” value [1] was 34.5% and the “Biochem EGFR %Inhibition” value [2] was -14.1%.
`CCc1cc(CC)c(C=C2C(=O)Nc3ccc(I)cc32)[nH]1` [10727/B03] was tested, and the “PDGF Kinase %Inhibition” value [3] was -7.4%, the “Met Kinase % Inhibition” value [1] was 84.5% and the “Biochem EGFR %Inhibition” value [2] was -2.8%.
`O=C1Nc2ccc(I)cc2C1=Cc1cc(Cl)cc(Br)c1O` [10727/B04] was tested, and the “PDGF Kinase %Inhibition” value [3] was 21.0%, the “Met Kinase % Inhibition” value [1] was 87.1% and the “Biochem EGFR %Inhibition” value [2] was 47.4%.
`O=C1Nc2c(Br)cc(Br)cc2C1=Cc1ccccc1Sc1ccc(Cl)cc1` [10727/A05] was tested, and the “PDGF Kinase %Inhibition” value [3] was 5.7%, the “Met Kinase % Inhibition” value [1] was 29.0% and the “Biochem EGFR %Inhibition” value [2] was -3.0%.
`CCOC(=O)c1[nH]c(C=C2C(=O)Nc3ccc(S(=O)(=O)N4CCOCC4)cc32)c(C(=O)OC)c1C` [10726/F03] was tested, and the “PDGF Kinase %Inhibition” value [3] was 5.6%, the “Met Kinase % Inhibition” value [1] was 54.1% and the “Biochem EGFR %Inhibition” value [2] was -17.4%.
`CCOC(=O)c1[nH]c(C=C2C(=O)Nc3ccc(S(=O)(=O)NC)cc32)c(C(=O)OC)c1C` [10726/D03] was tested, and the “PDGF Kinase %Inhibition” value [3] was 21.4%, the “Met Kinase % Inhibition” value [1] was 52.1% and the “Biochem EGFR %Inhibition” value [2] was -5.4%.
For `CCN(CC)c1ccc(C=C2C(=O)Nc3ccc(I)cc32)cc1` [10727/B02], the “PDGF Kinase %Inhibition” value [3] was -10.3%, the “Met Kinase % Inhibition” value [1] was 90.5% and the “Biochem EGFR %Inhibition” value [2] was -18.4%.
For `O=C1Nc2ccc(I)cc2C1=Cc1ccccc1Sc1ccc(Cl)cc1` [10727/B05], the “PDGF Kinase %Inhibition” value [3] was 9.4%, the “Met Kinase % Inhibition” value [1] was 83.3% and the “Biochem EGFR %Inhibition” value [2] was 39.0%.
In the case of `O=C1Nc2c(Br)cc(Br)cc2C1=Cc1c[nH]c2ccccc12` [10717/A06], the “Met Kinase % Inhibition” value [1] was 31.7% and the “Biochem EGFR %Inhibition” value [2] was -7.8%.
In the case of `O=C1Nc2ccc(CCCl)cc2C1=Cc1ccc(F)cc1` [10717/G05], the “Met Kinase % Inhibition” value [1] was 4.7% and the “Biochem EGFR %Inhibition” value [2] was -0.1%.
With `Cn1cccc1C=C1C(=O)Nc2ccc(CCCl)cc21` [10717/G04] the “Met Kinase % Inhibition” value [1] was 10.9% and the “Biochem EGFR %Inhibition” value [2] was 6.0%.
For `O=C1Nc2ccc(CCCl)cc2C1=Cc1ccc[nH]1` [10717/G09], the “Met Kinase % Inhibition” value [1] was 19.1% and the “Biochem EGFR %Inhibition” value [2] was 24.9%.
`O=C1Nc2ccc(CCCl)cc2C1=Cc1c[nH]c2ccccc12` [10717/G06] was tested, and the “Met Kinase % Inhibition” value [1] was 34.0% and the “Biochem EGFR %Inhibition” value [2] was -3.4%.
`COc1cccc(O)c1C=C1C(=O)Nc2ccc(CCCl)cc21` [10717/G10] was tested, and the “Met Kinase % Inhibition” value [1] was 30.9% and the “Biochem EGFR %Inhibition” value [2] was 2.4%.
